In one data set the target is T1, human MCH-1R (Homo sapiens, UniProt Q99705).
T1 construct: expressed in transfected cells; host or cells: CHO-K1 (American Type Culture Collection), plasmid vector pEF/myc/cyto (Invitrogen)
In words: MCH binding inhibition test. The settings on record: membranes of CHO-K1 cells expressing human MCH-1R, 50 pM [125I]MCH, 25° C., an hour; read-out: IC50 (50% inhibition concentration to specific [125I]MCH binding). As to the method:
The obtained expression vector was transfected to a host cell CHO-K1 (American Type Culture Collection) using Lipofectamine Plus Reagent (Life Technology Inc.) to provide MCH-1R expression cells.
After washing the glass filter with 50 mM Tris buffer (pH7.4) comprising 10 mM magnesium chloride, 2 mM ethylenediamine tetraacetate and 0.04% Tween-20, radiative activity on the glass filter was measured. […] MCH binding was determined.

The nature of data set [1]: Brain/cerebrospinal fluid migration test. Type of data set: in vivo. As to conditions: SD male rats, after 2 hours of oral administration (10 mg/kg); for concentration at 2 h: rat. From the text: A test compound was orally or intravenously administered to SD male rats (7 to 10 weeks-age, 200 to 400 g). Under anesthesia with ether for a predetermined period of time, from each of the rats whole blood was collected from its abdominal aorta using a heparin-processed syringe. Thereafter the brain skin was cut open and a 30 G needle for dental use was pierced between the cervical vertebrae and inserted into the subarachnoid cavity. Through the tube connected with the dental 30 G needle, 50-100 μL of the cerebrospinal fluid was collected into a 1-mL syringe, and then the brain was taken out. Each blood sample was centrifuged (4° C., 6,000 rpm,10 minutes) and the resulting plasma was stirred with three-fold the amount thereof of ethanol (including an internal standard substance). The brain sample was added with 2 mL of water and homogenized, a part of which was taken and stirred with three-fold the amount thereof of ethanol (including an internal standard substance). The cerebrospinal fluid was stirred with three-fold the amount thereof of ethanol (including an internal standard substance). Those samples were allowed to stand for 20 minutes at −20° C., and then centrifuged (4° C., 12,000 g, 10 minutes). The supernatant was analyzed through LC/MS/MS, and the concentration levels of the test compound in the plasma, in the brain and in the cerebrospinal fluid were quantified according to a relative calibration curve method.

pIC50: −log10 of the molar value. Read-outs that look alike come from different tables or passages of the source.

What is called melting point is the temperature, or range, at which the solid turns liquid.

T1 sequence (Q99705 whole entry): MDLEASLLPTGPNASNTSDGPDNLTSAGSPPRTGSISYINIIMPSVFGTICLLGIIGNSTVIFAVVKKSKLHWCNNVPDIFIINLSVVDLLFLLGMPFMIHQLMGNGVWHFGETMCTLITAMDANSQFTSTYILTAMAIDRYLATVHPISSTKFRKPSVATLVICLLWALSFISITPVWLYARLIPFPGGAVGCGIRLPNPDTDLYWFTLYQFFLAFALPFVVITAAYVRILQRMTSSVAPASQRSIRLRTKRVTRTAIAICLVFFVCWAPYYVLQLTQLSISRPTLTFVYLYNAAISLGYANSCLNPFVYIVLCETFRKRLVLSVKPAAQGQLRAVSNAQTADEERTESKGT

With `C[C@@H]1CC[C@@H](C)N1CCOc1ccc(-n2ccc(OCc3ccc(F)cc3)cc2=O)cc1` (relative stereo) [Example 32, 4-(4-Fluorobenzyloxy)-1-{4-[2-(trans-2,5-dimethyl-1-pyrrolidinyl)ethoxy]-phenyl}-1H-pyridin-2-one], the pIC50 on human MCH-1R was 8.46.
On to `CN(C)CCOc1ccc(-n2ccc(OCc3ccccc3)cc2=O)cc1` [Example 1, 4-Benzyloxy-1-{4-[2-(dimethylamino)ethoxy]phenyl}-1H-pyridin-2-one], for which the brain concentration in data set [1] is listed as 2.33 nmol/g. The concentration at 2 h is 46 nM in data set [1] (cerebrospinal fluid, read-out: cerebrospinal fluid concentration) and 250 nM in data set [1] (plasma, read-out: plasma concentration). The pIC50 at human MCH-1R was 8.02.
As to `O=c1cc(OCc2ccccc2)ccn1-c1ccc(OCCN2CCCCC2)cc1` [Example 2, 4-Benxyloxy-1-{4-[2-(1-piperidinyl)ethoxy]phenyl}-1H-pyridin-2-one], on human MCH-1R, the pIC50 was 8.36.
As to `CN(CCOc1ccc(-n2ccc(OCc3ccccc3)cc2=O)cc1)Cc1ccccc1` [Example 5, 4-Benzyloxy-1-(4-{2-[benzyl(methyl)amino]ethoxy}phenyl)-1H-pyridin-2-one], the pIC50 at human MCH-1R was 8.42.
`O=c1cc(OCc2ccccc2)ccn1-c1ccc(OCCN2CCCC2)cc1` [Example 12, 4-Benzyloxy-1-{4-[2-(1-pyrrolidinyl)ethoxy]phenyl}-1H-pyridin-2-one] displayed a melting point of 109 to 111 °C.
With `O=c1cc(OCc2ccccc2)ccn1-c1ccc(O[C@@H]2CCN(C3CCCC3)C2)cc1` [Example 18, 4-Benzyloxy-1-(4-{[(3R)-1-cyclopentyl-3-pyrrolidinyl]oxy}-phenyl)-1H-pyridin-2-one], the pIC50 on human MCH-1R was 8.37.
As for `CC(C)N1CC[C@@H](Oc2ccc(-n3ccc(OCc4ccccc4)cc3=O)cc2)C1` [Example 19, 4-Benzyloxy-1-(4-{[(3R)-1-isopropyl-3-pyrrolidinyl]oxy}phenyl)-1H-pyridin-2-one], the pIC50 at human MCH-1R was 8.29.
Still for that read-out and setting: as for `Cc1cc(-n2ccc(OCc3ccccc3)cc2=O)ccc1OCCN1CCCCC1` [Example 21], the figure is 8.54.
On to `O=c1cc(OCc2ccccc2)ccn1-c1ccc(OCCN2CCCC2)c(F)c1` [Example 23, 4-Benzyloxy-1-{3-fluoro-4-[2-(1-pyrrolidinyl)ethoxy]phenyl}-1H-pyridin-2-one], for which, on human MCH-1R, the pIC50 was 8.28.
With `O=c1cc(OCc2ccc(F)cc2)ccn1-c1ccc(OCCN2CCCCC2)cc1` [Example 28, 4-(4-Fluorobenzyloxy)-1-{4-[2-(1-piperidinyl)ethoxy]phenyl}-1H-pyridin-2-one], the pIC50 at human MCH-1R was 8.31.
Take `CCN(CC)CCOc1ccc(-n2ccc(OCc3ccc(F)cc3)cc2=O)cc1` [Example 30, 1-{4-[2-(Diethylamino)ethoxy]phenyl}-4-(4-fluorobenzyloxy)-1H-pyridin-2-one]: the pIC50 at human MCH-1R was 8.32.
Take `O=c1cc(OCc2ccc(Cl)cn2)ccn1-c1ccc(OCCN2CCCC2)cc1` [Example 40, 4-[(5-Chloro-2-pyridinyl)methoxy]-1-{4-[2-(1-pyrrolidinyl)ethoxy]phenyl}-1H-pyridin-2-one]: the melting point was 168 to 170 °C.
Regarding `O=c1cc(/C=C/c2ccc(F)cc2)ccn1-c1ccc(OCCN2CCCC2)cc1` [Example 45, 4-[(E)-2-(4-Fluorophenyl)vinyl]-1-{4-[2-(1-pyrrolidinyl)ethoxy]phenyl}-1H-pyridin-2-one], the pIC50 at human MCH-1R is 8.82.
Still for that read-out and setting: as for `O=c1cc(CCc2ccccc2)ccn1-c1ccc(OCCN2CCCC2)cc1` [Example 53, 4-(2-Phenylethyl)-1-{4-[2-(1-pyrrolidinyl)ethoxy]phenyl}-1H-pyridin-2-one], the figure is 8.36.
On the same count and under the same terms, as for `O=c1cc(OCc2ccsc2)ccn1-c1ccc(OCCN2CCCC2)cc1` [Example 68, 1-{4-[2-(1-Pyrrolidinyl)ethoxy]phenyl}-4-(3-thienylmethoxy)-1H-pyridin-2-one], the figure is 8.35.
The same measure, in the same setting: as for `COc1ccc(COc2ccn(-c3ccc(OCCN4CCCC4)cc3)c(=O)c2)cc1` [Example 73, 4-(4-Methoxybenzyloxy)-1-{4-[2-(1-pyrrolidinyl)ethoxy]phenyl}-1H-pyridin-2-one], the figure is 8.15; as for `O=c1cc(OCc2cccc(Cl)c2)ccn1-c1ccc(OCCN2CCCC2)cc1` [Example 75, 4-(3-Chlorobenzyloxy)-1-{4-[2-(1-pyrrolidinyl)ethoxy]phenyl}-1H-pyridin-2-one], 8.38; as for `CCN(CC)CCOc1ccc(-n2ccc(OCc3ccc(F)cc3)nc2=O)cc1` [Example 81], 8.11.
Regarding `O=c1cc(OCc2ccccc2)ccn1-c1ccc(OCCN2C3CCC2CC3)cc1` [Example 86, 1-{4-[2-(7-Azabicyclo[2.2.1]hept-7-yl)ethoxy]phenyl}-4-benzyloxy-1H-pyridin-2-one], the pIC50 on human MCH-1R was 8.72.
For the compound `O=c1cc(OCc2ccc(F)cc2)ccn1-c1ccc(OCCN2C3CCC2CC3)cc1` [Example 90, 1-{4-[2-(7-Azabicyclo[2.2.1]hept-7-yl)ethoxy]phenyl}-4-(4-fluorobenzyloxy)-1H-pyridin-2-one], the pIC50 at human MCH-1R was 8.57.
On the same count and under the same terms, for `O=c1cc(OCc2ccc(F)cc2)ccn1-c1ccc(OCCN2C3CCCC2CC3)cc1` [Example 91, 1-{4-[2-(8-Azabicylo[3.2.1]oct-8yl)ethoxy]phenyl}-4-(4-fluorobenzyloxy)-1H-pyridin-2-one] the value was 8.46.
Same read-out and setting: as for `O=c1cc(OCc2ccc(F)cc2)ccn1-c1ccc(O[C@@H]2C[C@H]3CCCN3C2)cc1` [Example 92, 4-(4-Fluorobenzyloxy)-1-{4-[(2R,7aR)-hexahydro-1H-pyrrolidin-2-yloxy]phenyl}-1H-pyridin-2-one], the figure is 8.06.
In turn, `O=C1CCCN1CCOc1ccc(-n2ccc(OCc3ccc(F)cc3)cc2=O)cc1` [Example 95, 4-(4-Fluorobenzyloxy)-1-{4-[2-(2-oxo-1-pyrrolidinyl)ethoxy]phenyl}-1H-pyridin-2-one] registered a melting point of 148 to 149 °C.
Turning to `CCN(CC)CCOc1ccc(-n2ccc(OCc3ccc(Cl)cn3)cc2=O)cc1` [Example 101], the melting point fell in the range of 112 to 115 °C. For the same compound, at human MCH-1R, the pIC50 is 8.27.
As to `CCN(C)CCOc1ccc(-n2ccc(OCc3ccc(Cl)cn3)cc2=O)cc1` [Example 114, 4-[(5-Chloro-2-pyridinyl)methoxy]-1-(4-{2-[ethyl(methyl)amino]ethoxy}-phenyl)-1H-pyridin-2-one], the pIC50 at human MCH-1R was 8.27.
Compound `CC(C)N(C)CCOc1ccc(-n2ccc(OCc3ccc(Cl)cn3)cc2=O)cc1` [Example 115, 4-[(5-Chloro-2-pyridinyl)methoxy]-1-(4-{2-[isopropyl(methyl)amino]ethoxy}-phenyl)-1H-pyridin-2-one] gave a melting point of 137 to 138 °C. Also, on human MCH-1R, the pIC50 was 8.26.
With `CCCN(C)CCOc1ccc(-n2ccc(OCc3ccc(Cl)cn3)cc2=O)cc1` [Example 116, 4-[(5-Chloro-2-pyridinyl)methoxy]-1-(4-{2-[methyl(propyl)amino]ethoxy}-phenyl)-1H-pyridin-2-one], the melting point was 119 to 123 °C.
`CC(C)N1CC[C@@H](Oc2ccc(-n3ccc(OCc4ccc(Cl)cn4)cc3=O)cc2)C1` [Example 122, 4-[(5-Chloro-2-pyridinyl)methoxy]-1-(4-{[(3R)-1-isopropyl-3-pyrrolidinyl]-oxy}phenyl)-1H-pyridin-2-one]: the melting point is 154 to 155 °C.
`CCN1CC[C@@H](Oc2ccc(-n3ccc(OCc4ccc(Cl)cn4)cc3=O)cc2)C1` [Example 123, 4-[(5-Chloro-2-pyridinyl)methoxy]-1-(4-{[(3R)-1-ethyl-3-pyrrolidinyl]-oxy}phenyl)-1H-pyridin-2-one] yielded a melting point of 145 to 146 °C.
Turning to `CN1CC[C@@H](Oc2ccc(-n3ccc(OCc4ccc(Cl)cn4)cc3=O)cc2)C1` [Example 124, 4-[(5-Chloro-2-pyridinyl)methoxy]-1-(4-{[(3R)-1-methyl-3-pyrrolidinyl]-oxy}phenyl)-1H-pyridin-2-one], the pIC50 on human MCH-1R was 8.17.
In the case of `O=c1cc(OCc2ccc(Cl)cn2)ccn1-c1ccc(OC[C@H]2CCCN2C2CCC2)cc1` [Example 133], the pIC50 at human MCH-1R is 8.33.
Still for that read-out and setting: as for `CN1CCC[C@H]1COc1ccc(-n2ccc(OCc3ccc(Cl)cn3)cc2=O)cc1` [Example 134, 4-[(5-Chloro-2-pyridinyl)methoxy]-1-(4-{[(2S)-1-methyl-2-pyrrolidinyl]-methoxy}phenyl)-1H-pyridin-2-one], the figure is 8.07.

The values are drawn from patent US7732456B2, “Pyridone derivative” (Banyu Pharmaceutical Co., Ltd., priority 2004, dated 2010).
